We go through one compound from publication PMC8129716 (CPT: Pharmacometrics & Systems Pharmacology, 2021).

In general, EC50 refers to the concentration at which the effect is half-maximal. A high value points to a need for much substance. For orientation: Ki means a measure of affinity in units of concentration, obtained from inhibition or displacement.

In one series the test system is Caco‐2. The series is described as follows: in vitro permeability study. The series is classed as in vitro ADME. Particulars: experimental data adjusted to match Fa~0.7.
The nature of series [1]: zanubrutinib PBPK model parameters. The arrangement: species or system human.
For a further series, the system named is CYP3A4. The series is described as follows: CYP3A4 induction in human hepatocytes. The series is classed as in vitro ADME.
Another series concerns the target CYP2D6 (Homo sapiens, UniProt P10635). The series is described as follows: reversible competitive CYP inhibition. It is filed as in vitro ADME. To be noted: read-out: Ki CYP2D6; Ki=IC50/2.
Series [2] is described as follows: human ADME study, single radiolabeled dose 320 mg. The series is classed as in vivo.
The target of another series is T1, OAT3 (Homo sapiens, UniProt Q8TCC7).
T1 sequence (Q8TCC7 1-542): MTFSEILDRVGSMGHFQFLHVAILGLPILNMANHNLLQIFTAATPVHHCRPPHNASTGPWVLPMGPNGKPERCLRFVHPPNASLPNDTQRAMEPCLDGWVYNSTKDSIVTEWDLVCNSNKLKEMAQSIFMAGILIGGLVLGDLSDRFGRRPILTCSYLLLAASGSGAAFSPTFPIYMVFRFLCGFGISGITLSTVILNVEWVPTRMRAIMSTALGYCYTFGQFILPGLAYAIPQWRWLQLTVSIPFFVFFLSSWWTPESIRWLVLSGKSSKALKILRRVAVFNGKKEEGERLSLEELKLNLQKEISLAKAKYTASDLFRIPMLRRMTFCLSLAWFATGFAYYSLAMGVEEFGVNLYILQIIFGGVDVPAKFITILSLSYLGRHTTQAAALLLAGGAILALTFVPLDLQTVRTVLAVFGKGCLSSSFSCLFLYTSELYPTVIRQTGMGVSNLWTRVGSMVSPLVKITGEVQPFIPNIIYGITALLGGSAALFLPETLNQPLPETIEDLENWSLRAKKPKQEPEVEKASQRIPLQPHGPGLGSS
The series is described as follows: transporter substrate/inhibitor assessment. It is filed as in vitro ADME.

A further series deals with T2, OCT2 (Homo sapiens, UniProt O15244).
T2 sequence (O15244 1-555): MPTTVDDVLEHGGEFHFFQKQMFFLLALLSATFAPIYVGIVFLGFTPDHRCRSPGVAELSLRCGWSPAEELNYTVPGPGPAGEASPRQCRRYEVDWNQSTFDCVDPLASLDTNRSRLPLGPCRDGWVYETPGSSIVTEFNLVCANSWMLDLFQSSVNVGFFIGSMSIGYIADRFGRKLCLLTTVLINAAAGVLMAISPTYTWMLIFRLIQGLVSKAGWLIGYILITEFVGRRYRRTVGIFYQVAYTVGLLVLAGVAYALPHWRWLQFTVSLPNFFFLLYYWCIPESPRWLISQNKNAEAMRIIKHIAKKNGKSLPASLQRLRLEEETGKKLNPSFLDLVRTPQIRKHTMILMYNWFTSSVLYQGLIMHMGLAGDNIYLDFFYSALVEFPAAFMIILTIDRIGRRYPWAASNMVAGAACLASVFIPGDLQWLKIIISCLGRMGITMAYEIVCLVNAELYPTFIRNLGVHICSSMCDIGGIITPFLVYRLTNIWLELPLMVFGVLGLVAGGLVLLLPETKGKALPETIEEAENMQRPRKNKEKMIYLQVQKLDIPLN
The series is described as follows: transporter substrate/inhibitor assessment. The series is classed as in vitro ADME.

A further series concerns the target T3, OATP1B1 (Homo sapiens, UniProt Q9Y6L6).
T3 sequence (Q9Y6L6 1-691): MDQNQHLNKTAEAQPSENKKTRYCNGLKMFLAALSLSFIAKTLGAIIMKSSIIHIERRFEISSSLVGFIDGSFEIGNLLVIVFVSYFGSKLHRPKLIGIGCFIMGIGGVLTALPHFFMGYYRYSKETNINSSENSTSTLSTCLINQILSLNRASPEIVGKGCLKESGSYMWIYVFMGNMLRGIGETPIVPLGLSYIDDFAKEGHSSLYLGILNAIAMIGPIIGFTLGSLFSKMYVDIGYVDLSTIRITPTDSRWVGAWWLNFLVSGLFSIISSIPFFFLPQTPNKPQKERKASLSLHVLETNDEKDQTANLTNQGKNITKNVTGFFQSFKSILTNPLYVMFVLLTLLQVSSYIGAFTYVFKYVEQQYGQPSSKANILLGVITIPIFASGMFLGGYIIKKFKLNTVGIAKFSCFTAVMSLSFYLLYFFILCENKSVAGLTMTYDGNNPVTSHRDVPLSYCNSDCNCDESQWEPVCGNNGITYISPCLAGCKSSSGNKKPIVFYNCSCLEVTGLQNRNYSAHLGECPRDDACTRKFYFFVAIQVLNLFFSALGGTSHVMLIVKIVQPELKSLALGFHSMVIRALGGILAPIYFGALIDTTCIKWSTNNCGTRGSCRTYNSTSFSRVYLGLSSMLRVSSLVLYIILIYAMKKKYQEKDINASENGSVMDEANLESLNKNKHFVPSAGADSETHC
The experiment in a line: transporter substrate/inhibitor assessment. It is filed as in vitro ADME.

For series [3] the following is noted: oral, patients with B-cell malignancies; cited from earlier work.
The next series deals with CYP3A. To be noted: cited from earlier work.
For series [4] the following is noted: population PK analysis; cited from earlier work.
Where [5] appears, read: single radiolabeled 320 mg, healthy subjects.

Sequence of CYP2D6 (P10635 whole entry): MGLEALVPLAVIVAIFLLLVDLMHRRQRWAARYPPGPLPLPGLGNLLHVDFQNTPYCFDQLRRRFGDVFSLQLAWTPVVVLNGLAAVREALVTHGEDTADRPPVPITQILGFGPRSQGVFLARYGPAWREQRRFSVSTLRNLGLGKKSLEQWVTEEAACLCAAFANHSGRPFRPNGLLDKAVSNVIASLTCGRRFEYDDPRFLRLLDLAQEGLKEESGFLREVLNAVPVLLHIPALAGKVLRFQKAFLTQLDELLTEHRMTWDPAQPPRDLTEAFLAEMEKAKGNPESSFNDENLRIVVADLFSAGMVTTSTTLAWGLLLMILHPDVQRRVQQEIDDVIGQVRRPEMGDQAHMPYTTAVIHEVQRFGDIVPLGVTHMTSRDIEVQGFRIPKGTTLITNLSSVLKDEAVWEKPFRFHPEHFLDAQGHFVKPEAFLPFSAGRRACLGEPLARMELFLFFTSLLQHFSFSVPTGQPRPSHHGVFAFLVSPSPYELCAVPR

`C=CC(=O)N1CCC([C@@H]2CCNc3c(C(N)=O)c(-c4ccc(Oc5ccccc5)cc4)nn32)CC1` [zanubrutinib, Zanubrutinib]: the “Peff,man” value in the series on Caco‐2 is reported as 0.9 10^−4 cm/s. Moreover, the Estimated renal contribution result in [1] was “Based on human absorption, metabolism, and excretion study (BGB−3111–105); Estimated renal contribution: 1.6% of total CL”. Also, the CL renal in [1] (human, urine, oral, 320 mg) was 8.33 mL/min. In addition, the “increase of CYP3A4 activity” value in the series with CYP3A4 (3 μM) stood at 6.27 fold. Further, the “increase of CYP3A4 activity” value in the series on CYP3A4 (30 μM) worked out at 2.51 fold. Further, in the series with CYP3A4 (Emax model on activity data), the “Indmax CYP3A4” value was found to be 6.27 fold. For the same compound, the midpoint of the response in the series on CYP3A4 (human, hepatocytes), the EC50, lay at 0.47 µM. Moreover, the “R3 (CYP3A induction potential)” value in the series on CYP3A4 (per FDA DDI guidance, from in vitro data) worked out at 0.23. In addition, the Ki at CYP2D6 is 36.5 µM. Moreover, the zanubrutinib absorbed in series [2] (inferred from unchanged drug in feces) is on record as 60–70%. Moreover, in [2] (single radiolabeled 320 mg), the “dose excreted renally as parent drug” value is on record as 0.4 % of the dose and the “unchanged zanubrutinib in feces” value was 38 % of the dose. Further, in series [2] (setting [5]), the “dose recovered in feces” value is “approximately 87%” and the “dose recovered in urine” value is on record as roughly 8%. On OAT3, the “substrate or inhibitor of OAT3” value is on record as “not a substrate or inhibitor”. Moreover, the “substrate or inhibitor of OCT2” value on OCT2 is recorded as “not a substrate or inhibitor”. Also, the “substrate or inhibitor of OATP1B1” value on OATP1B1 is given as “not a substrate or inhibitor”. In addition, the “mean apparent terminal elimination half-life” value in series [3] is 2 to 4 h. The “CYP3A induction in vivo” value in the series on CYP3A (clinical study BGB-3111-108 with midazolam) was “weak CYP3A inducer”. In the series with CYP3A (zanubrutinib 320 mg total daily dose), the “mean reduction of systemic exposure of CYP3A and CYP2C19 substrates” value is given as less than 50%. Moreover, in [4], the “AUC lower in patients compared with healthy volunteers” value is reported as 43.7% and the “Cmax lower in patients compared with healthy volunteers” value was 26.8%.
